Reference: ChEMBL document CHEMBL1221217 (Nat Chem Biol, 2008)
Calls of active or inactive are those of the source. The calls are words filed in the database; no cut-off is given here.

How the values were obtained:
[1] = Induction of dissociation of KV1.1 T1 domain/rat Kvbeta2 complex by solid phase binding assay
[2] = Induction of dissociation of KV1.1 T1 domain/rat Kvbeta2 I211R mutant complex at 2 mM by solid phase binding assay
[3] = molecular target: Voltage-gated potassium channel subunit beta-2 (Rattus norvegicus) (UniProt P62483); assay: Binding affinity to Kvbeta2 assessed as reduction of fluorescence by NADPH fluorescence spectrum based assay; design: scale not given: the % may be the effect or the level left
Sequence of Voltage-gated potassium channel subunit beta-2 (Rattus norvegicus) (P62483 whole entry, looked up): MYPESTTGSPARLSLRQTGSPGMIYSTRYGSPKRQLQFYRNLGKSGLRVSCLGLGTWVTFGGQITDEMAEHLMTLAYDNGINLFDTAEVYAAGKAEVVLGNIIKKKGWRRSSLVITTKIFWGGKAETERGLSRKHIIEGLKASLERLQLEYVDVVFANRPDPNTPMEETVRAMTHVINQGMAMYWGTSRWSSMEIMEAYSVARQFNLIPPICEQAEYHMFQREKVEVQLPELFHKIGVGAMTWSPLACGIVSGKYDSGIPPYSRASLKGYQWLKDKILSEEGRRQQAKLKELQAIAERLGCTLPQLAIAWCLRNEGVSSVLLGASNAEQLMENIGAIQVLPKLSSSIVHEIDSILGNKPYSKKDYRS

[4] = molecular target: Potassium voltage-gated channel subfamily A member 1 (Rattus norvegicus) (UniProt P10499); assay: Activation of KV1.1 expressed in Xenopus laevis oocytes coexpressing Kvbeta1 assessed as increase in channel current at 500 uM by electrophysiology method; settings: Oocyte
Sequence of Potassium voltage-gated channel subfamily A member 1 (Rattus norvegicus) (P10499 whole entry, looked up): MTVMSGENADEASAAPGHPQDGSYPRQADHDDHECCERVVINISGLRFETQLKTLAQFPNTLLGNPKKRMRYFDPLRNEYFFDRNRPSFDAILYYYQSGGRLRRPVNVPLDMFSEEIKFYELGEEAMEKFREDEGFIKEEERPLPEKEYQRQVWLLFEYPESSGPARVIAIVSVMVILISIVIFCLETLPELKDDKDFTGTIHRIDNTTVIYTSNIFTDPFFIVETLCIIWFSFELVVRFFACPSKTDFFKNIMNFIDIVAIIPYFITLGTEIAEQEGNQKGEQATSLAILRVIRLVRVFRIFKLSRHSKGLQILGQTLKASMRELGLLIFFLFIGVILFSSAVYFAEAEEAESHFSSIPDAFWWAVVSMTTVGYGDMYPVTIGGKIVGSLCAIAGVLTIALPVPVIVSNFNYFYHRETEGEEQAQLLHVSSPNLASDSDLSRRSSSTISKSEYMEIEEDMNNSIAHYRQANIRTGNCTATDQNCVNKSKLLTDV

[5] = molecular target: Potassium voltage-gated channel subfamily A member 1 (Rattus norvegicus) (UniProt P10499); assay: Activation of KV1.1 expressed in Xenopus laevis oocytes assessed as increase in steady state current normalized to initial inactivating current by electrophysiology method; settings: Oocyte
[6] = molecular target: Potassium voltage-gated channel subfamily A member 1 (Rattus norvegicus) (UniProt P10499); assay: Activation of KV1.1 expressed in Xenopus laevis oocytes coexpressing Kvbeta1 assessed as increase in steady state current normalized to initial inactivating current by electrophysiology method
[7] = molecular target: Potassium voltage-gated channel subfamily A member 1 (Rattus norvegicus) (UniProt P10499); assay: Activation of KV1.1 expressed in Xenopus laevis oocytes coexpressing Kvbeta1 assessed as increase in steady state current normalized to initial inactivating current at 500 uM by electrophysiology method; settings: Oocyte
[8] = molecular target: Potassium voltage-gated channel subfamily A member 1 (Rattus norvegicus) (UniProt P10499); assay: Activation of KV1.1 expressed in Xenopus laevis oocytes coexpressing Kvbeta1 W155A mutant assessed as increase in steady state current normalized to initial inactivating current at 500 uM by electrophysiology method; settings: Oocyte

EC50 [1]: 68 µM | Activity [2]: inactive | Activity [3]: 21% | Activity [4]: Active | Activity [5]: 4.5% | EC50 [6]: 46 µM | Activity [7]: 84% | Activity [8]: 93%
SMILES: C[C@]12CCC(=O)C=C1CC[C@@H]1[C@@H]2C(=O)C[C@@]2(C)[C@H]1CC[C@]2(O)C(=O)CO [CORTISONE]
